Measured values from patent US5032597A, “Method of using phenylquinolinecarboxylic acids and derivatives for lymthoid leukemia treatment in a mammal” (priority 1987, dated 1991).
≈ marks a conversion by molar mass, not a printed value. Where “and” joins values, the source holds several entries; their conditions need not be identical. Identical values can stand only once. Like-named read-outs stand apart in the source and are kept apart here.

Tests used:
[1] = tested on: L1210 leukemia; experiment: Lymphoid Leukemia L1210, survival of tumored mice; format: in vivo, CD2F1 mice; conditions: for response vs control in vivo at 200 mg/kg: 200 mg/kg i.p.; for response vs control in vivo at 100 mg/kg: 100 mg/kg i.p.; for response vs control in vivo at 50 mg/kg: 50 mg/kg i.p.; for response vs control in vivo at 75 mg/kg: 75 mg/kg i.p.; for response vs control in vivo at 18 mg/kg: 18 mg/kg i.p.; for response vs control in vivo at 12.5 mg/kg: 12.5 mg/kg i.p.
Experimental: The efficacy of the compounds of this invention against the transplanted mouse tumors was evaluated in test systems currently in use at the National Cancer Institute for the detection and assessment of anticancer activity. […] J. Cancer, 17, 129-142, (1981); Venditti, J. M., Seminars in Oncology, 8 (4) (1981); Goldin, A. and J. M. Venditti, in Recent Results in Cancer Research, 70, S. K. Carter and Y. Sakurai, Eds., Springer-Verlag, Berlin/Heidelberg, 1980].
The animals used in this test were CD2 F1 mice, all males weighing a minimum of 18 g and all within a 4 g weight range at the start of the test. The test group consisted of six mice. The tumor was implanted in each of the test mice by the intraperitoneal injection of 0.1 ml of diluted ascitic fluid containing 10^5 cells drawn from a mouse with L1210 leukemia. The test compounds were suspended in hydroxypropylcellulose or saline with Tween® 80 surfactant or dissolved in saline and injected intraperitoneally, at various doses, once daily for nine consecutive days starting on day one relative to the day of tumor inoculation (day 0). The control mice received injections of saline or hydroxypropylcellulose vehicle only. The mice were weighed and survivors were recorded on a regular basis for 30 days. The median survival time and the ratio of the median survival time for the treated (T) and control (C) mice was calculated. […] Drug effectiveness was assessed on the basis of the survival time. Results were expressed as a percentage of the control survival time (Median Survival Time: T/C ×100%). The criterion for effectiveness was determined by: T/C×100≥125 percent.

[2] = tested on: human colon carcinoma cells HCT-15; experiment: Human colon tumor test in vitro, HCT-15 cell growth inhibition; format: cell-based; conditions: HCT-15 cells, compound day 1 to day 4; for in vitro HCT-15 ID50 (50 percent inhibition of number of doublings): 4320 min; for IC50: Homo sapiens, HCT-15, 72 h, read-out: in vitro HCT-15 ID50 (50 percent inhibition of number of doublings)
Experimental: The compound of this invention were also tested for their ability to inhibit the growth of human colon carcinoma cells in vitro.
The human colon carcinoma cells, designated HCT-15, were derived from a specimen of an adenocarcinoma of human colon removed during surgery. The cells were grown in Roswell Park Medical Institute (RPMI) Medium 1640 supplemented with 10% heat inactivated fetal calf serum, penicillin (100 units/ml), streptomycin (100 μg/ml), gentamicin (20 μg/ml), fungizone (25 μg/ml), 0.075 percent sodium bicarbonate, […] 4-(2-hydroxyethyl)-1-piperazineethanesulfonic acid and […] N-tris(hydroxymethyl)methylglycine. […] On day 1 cells from sample dishes were harvested using trypsin (0.25%) treatment and counted with a hemocytometer to determine the number of cells per dish at the time of the addition of the compounds. Compounds of this invention were added in varying concentrations to other cultures. On day 4, treated and control cultures were harvested by trypsin treatment and the number of cells was determined. The number of doublings for the control cells was determined from the cell numbers on days 1 and 4. The ID50, the concentration of compound required to inhibit by 50 percent the number of doublings, was then calculated from the dose-response curve in which cell numbers were plotted on log-log paper against compound concentrations in micrograms per ml.

[3] = Mus musculus, L1210, ip, 720 h, read-out: L1210 Leukemia % T/C (median survival time)
[4] = Mus musculus, L1210, ip, 720 h, nonoptimal Q1DX9 instead of Q3DX9, read-out: L1210 Leukemia % T/C (median survival time)
[5] = Mus musculus, L1210, ip, 720 h, 25 mg/kg i.p., nonoptimal Q1DX9 instead of Q3DX9, read-out: L1210 Leukemia % T/C (median survival time)
[6] = Mus musculus, L1210, ip, 720 h, 25 mg/kg i.p., read-out: L1210 Leukemia % T/C (median survival time)

| SMILES | in vitro HCT-15 ID50 (50 percent inhibition of number of doublings) [2] | IC50 [2] [µg/mL] | also measured |
| --- | --- | --- | --- |
| CCc1c(-c2ccc(C3CCCCC3)cc2)nc2ccc(F)cc2c1C(=O)O [Example 10] | 0.03 µg/mL | – | response vs control in vivo at 200 mg/kg [1, 3]: 163% |
| O=C(O)c1cc(-c2ccc(C3CCCCC3)cc2)nc2ccc(Cl)cc12 [Example 94] | 0.65 µg/mL | – | response vs control in vivo at 100 mg/kg [1, 4]: 107% |
| CCc1c(-c2ccc(C(C)CC)cc2)nc2ccc(F)cc2c1C(=O)O (stereo not drawn) [Example 107] | 0.09 µg/mL | – | response vs control in vivo at 25 mg/kg [1, 5]: 116% |
| Cc1ccc(-c2ccc(-c3nc4ccc(F)cc4c(C(=O)O)c3C)cc2)cc1Cl [Example 38] | – | > 1 | response vs control in vivo at 200 mg/kg [1, 3]: 238% |
| Cc1c(-c2ccc(-c3ccccc3)cc2)nc2cccc(Cl)c2c1C(=O)O [Example 80] | – | < 0.5 | – |
| Cc1c(-c2ccc(-c3ccccc3)cc2)nc2ccc(F)c(Cl)c2c1C(=O)O [Example 81, 2-(4-Biphenyl)-5-chloro-6-fluoro-3-methyl-4-quinolinecarboxylic acid] | – | < 0.5 | response vs control in vivo at 25 mg/kg [1, 6]: 191% |
| Cc1c(-c2ccc(C3CCCCC3)cc2)nc2ccc(C(F)(F)F)cc2c1C(=O)O [Example 48] | – | 0.1 (≈ 0.242 µM) | – |
| COc1ccc(-c2ccc(-c3nc4ccc(Cl)cc4c(C(=O)O)c3C)cc2)cc1 [Example 114] | 1.30 µg/mL | – | response vs control in vivo at 50 mg/kg [1, 4]: 121% |
| Cc1c(-c2ccc(C3CCCCC3)cc2)nc2ccc(F)cc2c1C(=O)O [Example 169] | 0.04 µg/mL | – | – |
| O=C(O)c1cc(-c2ccc(Oc3ccc(F)cc3)cc2)nc2ccc(F)cc12 [Example 187] | – | < 0.5 | response vs control in vivo at 75 mg/kg [1, 3]: 131% |
| CCCCCCCCCCc1ccc(-c2nc3ccc(F)cc3c(C(=O)O)c2C)cc1 [Example 97] | 0.14 µg/mL | – | response vs control in vivo at 25 mg/kg [1, 5]: 110% |
| CCc1c(-c2ccc(C(C)CC)cc2)nc2ccc(F)cc2c1C(=O)O (stereo not drawn) [Example 17] | 0.65 µg/mL | – | response vs control in vivo at 400 mg/kg ([1]; Mus musculus, L1210, ip, 720 h, 400 mg/kg i.p., read-out: L1210 Leukemia % T/C (median survival time)): 136% |
| Cc1c(-c2ccc(-c3ccc(F)cc3)cc2)nc2ccc(F)cc2c1C(=O)O [Example 121] | < 0.50 µg/mL | – | response vs control in vivo at 18 mg/kg [1, 3]: 175% |
| Cc1c(-c2ccc(-c3cccc(F)c3)cc2)nc2ccc(F)cc2c1C(=O)O [Example 73] | – | < 0.1 | response vs control in vivo at 50 mg/kg [1, 3]: 195% |
| Cc1c(-c2ccc(-c3ccccc3)cc2)nc2ccc(C(F)(F)F)cc2c1C(=O)O [Example 56] | – | < 0.5 | response vs control in vivo at 75 mg/kg [1, 3]: 176% |
| Cc1c(-c2ccc(-c3ccc(Br)cc3)cc2)nc2ccc(F)cc2c1C(=O)O [Example 102] | 1.0 µg/mL and 1.9 µg/mL | – | response vs control in vivo at 12.5 mg/kg [1, 3]: 164% |
| Cc1c(-c2ccc(-c3ccccc3)c(F)c2)nc2ccc(F)cc2c1C(=O)O [Example 210] | .03 µg/mL | – | L1210 Leukemia % T/C (median survival time) ([1]; 25 mg/kg i.p.): 177% |
| Cc1c(-c2ccc(-c3ccc(O)cc3)cc2)nc2ccc(Cl)cc2c1C(=O)O [Example 192, 6-Chloro-2-(4'-hydroxy-1,1'biphenyl-4-yl)-3-methyl-4-quinolinecarboxylic acid] | – | > 1 | response vs control in vivo at 200 mg/kg [1, 3]: 166% |
| Cc1c(-c2ccc(OCc3ccccc3)cc2)nc2ccc(F)cc2c1C(=O)O [Example 106] | 1.20 µg/mL | – | response vs control in vivo at 25 mg/kg [1, 5]: 107% |
| CCc1cccc(-c2ccc(-c3nc4ccc(F)cc4c(C(=O)O)c3C)cc2)c1 [Example 41] | – | 0.0079 (≈ 0.0205 µM) | – |

| SMILES | in vitro HCT-15 ID50 (50 percent inhibition of number of doublings) [2] | IC50 [2] [µg/mL] | also measured |
| --- | --- | --- | --- |
| Cc1c(-c2ccc(-c3ccccc3)cc2)nc2cc(Cl)ccc2c1C(=O)O [Example 139] | < 5.00 µg/mL | – | response vs control in vivo at 100 mg/kg [1, 3]: 146% |
| Cc1cc2c(C(=O)O)c(C)c(-c3ccc(Oc4ccccc4)cc3)nc2cc1Cl [Example 59] | – | > 5 | response vs control in vivo at 300 mg/kg ([1]; Mus musculus, L1210, ip, 720 h, 300 mg/kg i.p., read-out: L1210 Leukemia % T/C (median survival time)): 152% |
| Cc1ccc2nc(-c3ccc(-c4ccccc4)cc3)c(C)c(C(=O)O)c2c1 [Example 104] | 0.22 µg/mL | – | – |
| Cc1c(-c2ccc(-c3ccccc3)cc2F)nc2ccc(F)cc2c1C(=O)O [Example 208] | – | < 0.001 | – |
| Cc1ccc(-c2ccc(-c3nc4ccc(F)cc4c(C(=O)O)c3C)cc2)cc1C [Example 39] | – | < 0.1 | – |
| Cc1c(-c2ccc(-c3ccccc3)cc2)nc2cc(Cl)c(Cl)cc2c1C(=O)O [Example 47] | – | 3.2 (≈ 7.84 µM) | – |
| O=C(O)c1cc(-c2ccc(-c3ccccc3)cc2)nc2ccc(F)cc12 [Example 123] | – | – | response vs control in vivo at 21.9 mg/kg ([1]; Mus musculus, L1210, ip, 720 h, 21.9 mg/kg i.p., read-out: L1210 Leukemia % T/C (median survival time)): 145% |
| Cc1c(-c2ccc(-c3ccccc3F)cc2)nc2ccc(Cl)cc2c1C(=O)O [Example 70] | – | < 0.1 | – |
| Cc1c(-c2ccc(-c3ccccc3F)cc2)nc2ccc(F)c(Cl)c2c1C(=O)O [Example 84] | – | < 0.1 | – |
| Cc1c(-c2ccc(-c3cccc(F)c3)cc2)nc2ccccc2c1C(=O)O [Example 190] | – | – | response vs control in vivo at 50 mg/kg [1, 3]: 195% |
| Cc1ccc(-c2ccc(-c3nc4ccc(F)cc4c(C(=O)O)c3C)cc2)cc1Cl [Example 128] | – | – | response vs control in vivo at 25 mg/kg [1, 6]: 135% |
| Cc1c(-c2ccc(Oc3ccccc3)cc2)nc2ccc(C(F)(F)F)cc2c1C(=O)O [Example 147] | – | – | response vs control in vivo at 18 mg/kg [1, 3]: 132% |
| Cc1ccc2c(C(=O)O)c(C)c(-c3ccc(-c4ccccc4)cc3)nc2c1 [Example 55] | – | – | response vs control in vivo at 150 mg/kg ([1]; Mus musculus, L1210, ip, 720 h, 150 mg/kg i.p., read-out: L1210 Leukemia % T/C (median survival time)): 156% |
| Cc1c(-c2ccc(-c3ccccc3)cc2)nc2cc(F)ccc2c1C(=O)O [Example 186] | – | – | response vs control in vivo at 45 mg/kg ([1]; Mus musculus, L1210, ip, 720 h, 45 mg/kg i.p., nonoptimal Q1DX9 instead of Q3DX9, read-out: L1210 Leukemia % T/C (median survival time)): 123% |
| Cc1c(-c2ccc(Oc3ccc([N+](=O)[O-])cc3)cc2)nc2ccc(F)cc2c1C(=O)O [Example 86, 6-Fluoro-3-methyl-2-(4-nitrophenoxyphenyl)-4-quinolinecarboxylic acid] | – | – | response vs control in vivo at 175 mg/kg ([1]; Mus musculus, L1210, ip, 720 h, 175 mg/kg i.p., read-out: L1210 Leukemia % T/C (median survival time)): 153% |
| Cc1c(-c2ccc(Oc3ccccc3)cc2)nc2ccc(Br)cc2c1C(=O)O [Example 143] | – | – | response vs control in vivo at 37.5 mg/kg ([1]; Mus musculus, L1210, ip, 720 h, 37.5 mg/kg i.p., read-out: L1210 Leukemia % T/C (median survival time)): 132% |
| Cc1c(-c2ccc(-c3ccc(Br)cc3)cc2)nc2ccc(Cl)cc2c1C(=O)O [Example 27] | – | – | response vs control in vivo at 50 mg/kg [1, 3]: 155% |
| Cc1c(-c2ccc(-c3ccccc3F)cc2)nc2ccc(F)c(Cl)c2c1C(=O)O [Example 167] | – | – | response vs control in vivo at 12.5 mg/kg [1, 3]: 197% |
| Cc1c(-c2ccc(C3CCCCC3)cc2)nc2c(Br)cc(Br)cc2c1C(=O)O [Example 46] | – | 0.42 (≈ 0.835 µM) | – |
